Article PMC12723477, “Evaluating the Antifungal Potential of Autophagy-Related Protein 4 (ATG4) Inhibitors against Human Fungal Pathogens” (Journal of Microbiology and Biotechnology, 2025)

Assays:
[1] = biological target: T1, AnAtg4 (Aspergillus niger ATG4) (Aspergillus niger, UniProt A2QY50); test: in vitro cleavage of AnAtg8 sensor by purified AnAtg4 at […] compound (immunoblot); assay type: biochemical
T1 construct: 6xHis-AnAtg4
T1 sequence (A2QY50 1-404): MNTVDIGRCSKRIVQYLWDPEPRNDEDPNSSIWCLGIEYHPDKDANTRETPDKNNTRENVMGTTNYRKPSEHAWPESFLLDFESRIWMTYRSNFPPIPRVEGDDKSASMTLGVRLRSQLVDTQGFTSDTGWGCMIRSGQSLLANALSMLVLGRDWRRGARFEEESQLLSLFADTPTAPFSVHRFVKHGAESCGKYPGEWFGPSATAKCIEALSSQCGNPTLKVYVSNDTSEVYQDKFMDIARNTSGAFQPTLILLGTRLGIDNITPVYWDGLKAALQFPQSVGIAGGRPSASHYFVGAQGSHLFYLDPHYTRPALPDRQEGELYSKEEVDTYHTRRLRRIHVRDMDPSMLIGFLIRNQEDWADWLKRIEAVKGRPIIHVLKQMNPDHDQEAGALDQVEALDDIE

[2] = biological target: T2, CnAtg4T (truncated Cryptococcus neoformans ATG4) (Cryptococcus neoformans, UniProt J9VN57); test: in vitro cleavage of CnAtg8 sensor by purified CnAtg4T (immunoblot) and BRET; assay type: biochemical
T2 construct: gene CNAG_02662; CnAtg4T, 6xHis, truncated version excluding the disordered N-terminus, retaining the catalytic triad Cys563/Asp782/His784

[3] = biological target: T2, CnAtg4T (truncated Cryptococcus neoformans ATG4); test: microscale thermophoresis with labelled purified CnAtg4T; also in vitro cleavage assay (IC50 […]) and BRET; assay type: binding

T2 sequence (J9VN57 entry or part of it): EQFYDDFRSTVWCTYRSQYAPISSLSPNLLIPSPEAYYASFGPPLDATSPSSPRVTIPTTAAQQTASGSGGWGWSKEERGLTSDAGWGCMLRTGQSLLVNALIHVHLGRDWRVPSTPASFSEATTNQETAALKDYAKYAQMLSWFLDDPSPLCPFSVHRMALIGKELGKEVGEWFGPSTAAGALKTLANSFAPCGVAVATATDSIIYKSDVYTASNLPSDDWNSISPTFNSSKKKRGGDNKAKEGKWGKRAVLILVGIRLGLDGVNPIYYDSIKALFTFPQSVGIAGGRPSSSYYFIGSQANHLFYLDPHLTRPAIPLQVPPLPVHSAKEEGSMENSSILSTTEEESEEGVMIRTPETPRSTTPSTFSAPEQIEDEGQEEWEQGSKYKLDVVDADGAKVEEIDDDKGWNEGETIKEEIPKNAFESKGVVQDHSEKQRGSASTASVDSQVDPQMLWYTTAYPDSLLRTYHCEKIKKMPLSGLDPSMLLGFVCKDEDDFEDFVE

SMILES | in vitro cleavage of AnAtg8 sensor by purified AnAtg4 at 10 μM compound (immunob) [1] | IC50 [2] [µM] | Kd [3] [µM]
O=C1c2ccccc2[Se](=O)N1c1ccccc1 (stereo not drawn) [EO, ebselen oxide] | the inhibitors exhibited comparable inhibitory effects on the ATG8 maturation catalyzed by AfAtg4 and AnAtg4 (Fig. 2D) | 4.8 | 
O=c1c2ccccc2[se]n1-c1ccccc1 [EB, Ebselen] | the inhibitors exhibited comparable inhibitory effects on the ATG8 maturation catalyzed by AfAtg4 and AnAtg4 (Fig. 2D) |  | 0.7 ± 0.32
Cc1ccc(-n2sc3ccccc3c2=O)cc1 [PT, 2-(4-methylphenyl)-1,2-benzisothiazol-3(2H)-one] | the inhibitors exhibited comparable inhibitory effects on the ATG8 maturation catalyzed by AfAtg4 and AnAtg4 (Fig. 2D) | 8.44 | 
